# From US12503713B1, “Stabilization of tryptamines by denaturing enzymes, optimizing ionization states, and controlling confounding variables” (Convergent Health Sciences LLC, priority 2025, dated 2025)
# Legend:
# [1] = spontaneous dephosphorylation of phosphoryloxytryptamines in phosphate buffers, one hour at 85 degrees Celsius, HPLC at 220 nanometers (Example 1)
# [2] = cited from earlier work
# phosphatase enzyme = experiment: colorimetric assay with a para-nitrophenyl phosphate substrate for residual phosphatase enzyme activity; type: biochemical, Psilocybe cubensis; settings: supernatants of the extracts
# Text: The denaturation of relevant phosphatase enzymes may be assessed, for example, by performing a colorimetric assay with a para-nitrophenyl phosphate substrate. Para-nitrophenyl phosphate comprises a phosphorylated aromatic, which is chemically similar to the phosphorylated indole of a phosphoryloxytryptamine. Colorimetric assays performed with a para-nitrophenyl phosphate substrate therefore provide suitable methods to assess […] that are relevant to this disclosure.
# (§1) The molecular weights of the analytes are determined by electrospray ionization mass spectroscopy (ESI-MS) operating in positive ion mode. The supernatants are also used for a colorimetric assay with a para-nitrophenyl phosphate substrate to identify residual phosphatase enzyme activity and for a colorimetric assay with a syringaldazine substrate to identify any residual laccase enzyme activity.
# laccase enzyme = experiment: colorimetric assay with a syringaldazine substrate for residual laccase enzyme activity; type: biochemical, Psilocybe cubensis; settings: supernatants of the extracts
# Text: The denaturation of relevant laccase enzymes may be assessed, for example, by performing a colorimetric assay with a laccase enzyme substrate such as syringaldazine or 2,2′-azino-bis(3-ethylbenzothiazoline-6-sulfonate) (ABTS). Syringaldazine comprises an aromatic structure with pendant hydroxyl groups, which is chemically similar to the indole of a hydroxytryptamine, and ABTS comprises a benzothiazoline, which is chemically similar to the indole of tryptamines generally. Colorimetric assays performed with a syringaldazine or ABTS substrate therefore provide suitable methods to assess laccase activity that are relevant to this disclosure.
# as §1
# [3] = cited from earlier work; remark: listed apart in the source
# [4] = pH of 2.0 relative to pH of 3.0
# [5] = pH of 7.0 relative to pH of 6.0
# [6] = pH of 3.0 relative to pH of 2.0
# [7] = pH of 6.0 relative to pH of 7.0
molecule,measurement,setting,value
"NCCc1c[nH]c2cccc(O)c12 [4-HT, 3-(2-aminoethyl)-1H-indol-4-ol]",absorbance detected for the hydroxytryptamine,[1]; [4],greater absorbance
same,absorbance detected for the hydroxytryptamine,[1]; [5],greater absorbance
"C[N+](C)(C)CCc1c[nH]c2cccc(O)c12 [4-hydroxy-TMT, [2-(4-hydroxy-1H-indol-3-yl)ethyl]-trimethylazanium]",absorbance detected for the hydroxytryptamine,[1]; [4],greater absorbance
same,absorbance detected for the hydroxytryptamine,[1]; [5],greater absorbance
"O=C(O)Cc1c[nH]c2ccccc12 [Indole-3-acetic acid, indole-3-acetic acid]",solubility in water,[2],insoluble in water
"C[N+](C)(C)CCc1c[nH]c2cccc(OP(=O)(O)O)c12 [aeruginascin, [2-(4-phosphonooxy-1H-indol-3-yl)ethyl]-trimethylazanium]",absorbance detected for the phosphoryloxytryptamine,[1]; [6],Greater absorbance
same,absorbance detected for the phosphoryloxytryptamine,[1]; [7],Greater absorbance
N.N.O=S(=O)(O)O [ammonium sulfate],phosphatase enzyme activity relative to the water control,phosphatase enzyme,significantly less
same,laccase enzyme activity relative to the water control,laccase enzyme,significantly less
"CNCCc1c[nH]c2cccc(OP(=O)(O)O)c12 [baeocystin, [2-(4-phosphonooxy-1H-indol-3-yl)ethyl]-methylazanium]",absorbance detected for the phosphoryloxytryptamine,[1]; [6],Greater absorbance
same,absorbance detected for the phosphoryloxytryptamine,[1]; [7],Greater absorbance
"Cl.N=C(N)N [guanidinium, guanidinium chloride]",phosphatase enzyme activity relative to the water control,phosphatase enzyme,significantly less
same,laccase enzyme activity relative to the water control,laccase enzyme,significantly less
"NCCc1c[nH]c2cccc(OP(=O)(O)O)c12 [norbaeocystin, 2-(4-phosphonooxy-1H-indol-3-yl)ethylazanium]",absorbance detected for the phosphoryloxytryptamine,[1]; [6],Greater absorbance
same,absorbance detected for the phosphoryloxytryptamine,[1]; [7],Greater absorbance
"CNCCc1c[nH]c2cccc(O)c12 [norpsilocin, 3-[2-(methylamino)ethyl]-1H-indol-4-ol]",absorbance detected for the hydroxytryptamine,[1]; [4],greater absorbance
same,absorbance detected for the hydroxytryptamine,[1]; [5],greater absorbance
"CCCCCCCCO[C@@H]1O[C@H](CO)[C@@H](O)[C@H](O)[C@H]1O [octyl glucoside, octyl β-D-glucopyranoside]",phosphatase enzyme activity relative to the water control,phosphatase enzyme,significantly less
same,laccase enzyme activity relative to the water control,laccase enzyme,significantly less
"CN(C)CCc1c[nH]c2cccc(O)c12 [psilocin, 3-[2-(dimethylamino)ethyl]-1H-indol-4-ol]",absorbance detected for the hydroxytryptamine,[1]; [4],greater absorbance
same,absorbance detected for the hydroxytryptamine,[1]; [5],greater absorbance
CN(C)CCc1c[nH]c2cccc(OP(=O)(O)O)c12 [psilocybin],pKa of the azanium of psilocybin,[3]; conjugate acid of the amino,about 10.4
same,pKa of the dihydrogen phosphate of psilocybin (lowest pKa),[3]; first phosphate pKa,about 1.3
CCCCCCCCCCCCOS(=O)(=O)[O-].[Na+] [sodium dodecyl sulfate],phosphatase enzyme activity relative to the water control,phosphatase enzyme,significantly less
same,laccase enzyme activity relative to the water control,laccase enzyme,significantly less
OCCc1c[nH]c2ccccc12 [tryptophol],solubility in water,[2],insoluble in water
NC(N)=O [urea],phosphatase enzyme activity relative to the water control,phosphatase enzyme,significantly less
same,laccase enzyme activity relative to the water control,laccase enzyme,significantly less
Chitin,solubility in water,[2],insoluble in water
"polyethylene glycol 4-(2,4,4-trimethylpent-2-yl)phenyl ether [Triton X-100]",phosphatase enzyme activity relative to the water control,phosphatase enzyme,significantly less
same,laccase enzyme activity relative to the water control,laccase enzyme,significantly less
